Assay [1] relates to Human ES cells (KhES-1 strain). As to the kind of experiment: Effect of each Wnt signal transduction pathway inhibiting substance on production of cell mass containing neural tissue and nonneural epithelial tissue (Example 7). The format is cell-based. The conditions noted are these: inhibitor added from start of suspension culturing (IWP-2 2 or 5 μM, C-59 2 μM, IWP-L6 1 or 10 μM, LGK974 1 or 5 μM, KY 02111 1 or 5 μM, XAV939 1 μM) with SB-431542 1 μM; BMP4 1.5 nM on day 2; bright field observation day 10. Here is the method: Human ES cells (KhES-1 strain) were cultured under feeder-free conditions according to the method described in Scientific Reports, 4, 3594 (2014). As the feeder-free medium, StemFit medium was used and, as the feeder-free scaffold, Laminin 511-E8 was used. Specific maintenance culturing operation was performed in the same manner as in Example 1.
The thus-prepared subconfluent human ES cells were washed with PBS, subjected to an enzyme treatment using Accumax, a mukessei medium medium for differentiation induction was added, and the cells were scraped from the surface of the culture dish by using a cell scraper and dispersed into single cells by pipetting. Thereafter, the aforementioned human ES cells dispersed into single cells were suspended in 100 μl of a serum-free medium at 1.2×10^4 cells per well of a non-cell-adhesive 96-well culture plate (PrimeSurface 96V-bottom plate, manufactured by SUMITOMO BAKELITE), and cultured in suspension under the conditions of 37° C., 5% CO2. As the serum-free medium (gfCDM+KSR) therefor, a serum-free medium which is a 1:1 mixture of F-12+Glutamax medium and IMDM+Glutamax medium supplemented with 5% Knockout Serum Replacement, 450 μM 1-mono thioglycerol, 1× Chemically defined lipid concentrate, 50u/ml penicillin-50 μg/ml streptomycin was used. At the time of the start of suspension culturing (day 0 from the start of suspension culturing, start of step 1), Y27632 (final concentration 20 μM) and SB-431542 (1 μM) were added to the aforementioned serum-free medium. As the Wnt signal transduction pathway inhibiting substance, IWP-2 (manufactured by Tocris Bioscience, 2 or 5 μM), C-59 (manufactured by Cayman Chemicals, 2 μM), IWP-L6 (manufactured by AdooQ bioscience, 1 or 10 μM), LGK974 (manufactured by Cayman Chemicals, 1 or 5 μM), KY 02111 (manufactured by Cayman Chemicals, 1 or 5 μM), or XAV939 (manufactured by Cayman Chemicals, 1 μM) was added at the start of the suspension culturing, and the condition with the addition of DMSO alone as a control of no addition of a Wnt signal transduction pathway inhibiting substance was performed. Thereafter, a serum-free medium not containing Y27632 and containing each Wnt signal transduction pathway inhibiting substance, SB-431542 and BMP4 was added at 100 μl per well on day 2 from the start of suspension culturing. BMP4 was added at 3 nM to the medium so that the final concentration in the well could be 1.5 nM. A half amount of the medium was changed with a serum-free medium not containing Y27632 or BMP and containing each Wnt signal transduction pathway inhibiting substance and SB-431542 on day 6 from the start of suspension culturing. Bright field observation was performed under an inverted microscope (manufactured by KEYENCE CORPORATION, BIOREVO) on day 10 from the start of suspension culturing (FIGS. 8A-K).

For assay [2], the system named is Human ES cells (KhES-1 strain). As to the kind of experiment: Effect of compound pre-treatment before differentiation induction on quality grade of cell masses (Example 8). Format: cell-based. The conditions noted are these: day 15 of differentiation induction; for number of Grade 1 cell masses (near spherical, not less than 80% of circumference coated with nonneural epithelium) / number of Grade 2 cell masses (80% to 40% of circumference coated with nonneural epithelium, or distorted shape) / number of Grade 3 cell masses (nonneural epithelium on surface not more than 40%): of 32 cell masses, pre-treatment 6 days after seeding (300 nM SAG and/or 5 μM SB-431542). Here is the method:
Human ES cells (KhES-1 strain) were cultured under feeder-free conditions according to the method described in Scientific Reports, 4, 3594 (2014). As the feeder-free medium, StemFit medium was used and, as the feeder-free scaffold, Laminin 511-E8 was used. Specific maintenance culturing operation was performed in the same manner as in Example 1. Cells under 4 conditions were prepared including conditions in which, when the cultured cells are used for differentiation induction, nothing is simultaneously added with medium change with […] medium (Control), conditions in which 300 nM SAG alone is added (+300 nM SAG), conditions in which 5 µM SB-431542 alone is added (+5 μM SB-431542), and conditions in which SAG and SB431542 are simultaneously added (+SAG/SB) at 6 days after seeding. The next day of the above-mentioned treatment, human ES cells under 4 conditions that reached subconfluence were each subjected to differentiation induction by suspension culturing into a cell mass containing neural tissue and nonneural epithelial tissue according to the method described in Example 1. Thereafter, on day 15 of differentiation induction, bright field observation was performed using an inverted microscope (manufactured by KEYENCE CORPORATION, BIOREVO). The cell masses formed after each pre-treatment were evaluated in three stages of cell masses with near spherical form in which not less than 80% of the whole circumference is coated with nonneural epithelium (Grade 1, e.g.-FIG. 9A); cell masses in which 80% to 40% of the whole circumference is coated with nonneural epithelium, or with a distorted shape (Grade 2, e.g.-FIG. 9B); and cell masses in which the proportion of nonneural epithelium on the cell mass surface is not more than 40% (Grade 3, e.g.=FIG. 9C).

In the case of `Oc1nc(-c2ccc(C(F)(F)F)cc2)nc2c1CSCC2` [XAV939], the “formation of cell mass having nonneural epithelial tissue on the surface” value (“formation” below) in assay [1] was “a cell mass having nonneural epithelial tissue on the surface was formed”.

For the compound `NC(=O)c1ccc(-c2nc(-c3ccc4c(c3)OCO4)c(-c3ccccn3)[nH]2)cc1` [SB-431542, 4-(5-benzol[1,3]dioxol-5-yl-4-pyridin-2-yl-1H-imidazol-2-yl)-benzamide], in assay [2], the “number of Grade 1 cell masses (near spherical, not less than 80% of circumference coated with nonneural epithelium)” value came out at 28; the “number of Grade 2 cell masses (80% to 40% of circumference coated with nonneural epithelium, or distorted shape)” value was found to be 4; the “number of Grade 3 cell masses (nonneural epithelium on surface not more than 40%)” value worked out at 0. Also, in assay [2] (pre-treatment 6 days after seeding), the “proportion of Grade 1 cell masses as compared to Control with no treatment” value was “drastically improved”.

In the case of `Cc1cc(-c2ccc(CC(=O)Nc3ccc(-c4cccnc4)cc3)cc2)ccn1` [C-59], the “formation” value in assay [1] is listed as “a cell mass having nonneural epithelial tissue on the surface was formed”.

With `Cc1cc(-c2ncc(CC(=O)Nc3ccc(-c4cnccn4)cn3)cc2C)ccn1` [LGK974], the “formation” value in assay [1] is “a cell mass having nonneural epithelial tissue on the surface was formed”.

`COc1ccc(CCC(=O)Nc2nc3ccc(Cl)cc3s2)cc1OC` [KY02111]: the “formation” value in assay [1] is “a cell mass having nonneural epithelial tissue on the surface was formed”.

For the compound `Cc1ccc2nc(NC(=O)CSc3nc4c(c(=O)n3-c3ccccc3)SCC4)sc2c1` [IWP-2], in assay [1], the “formation” value is reported as “a cell mass having nonneural epithelial tissue on the surface was formed”.

Take `CNC1CCC(N(Cc2cccc(-c3ccncc3)c2)C(=O)c2sc3ccccc3c2Cl)CC1` (stereo not shown) [SAG, N-Methyl-N′-(3-pyridinylbenzyl)-N′-(3-chlorobenzo[b]thiophene-2-carbonyl)-1,4-diaminocyclohexane]: in assay [2], the “number of Grade 1 cell masses (near spherical, not less than 80% of circumference coated with nonneural epithelium)” value was 10; the “number of Grade 2 cell masses (80% to 40% of circumference coated with nonneural epithelium, or distorted shape)” value worked out at 18; the “number of Grade 3 cell masses (nonneural epithelium on surface not more than 40%)” value amounted to 4.

For the compound `O=C(CSc1nc2c(c(=O)n1-c1ccccc1)SCC2)Nc1ccc(-c2ccccc2)cn1` [IWP-L6], in assay [1], the “formation” value is “a cell mass having nonneural epithelial tissue on the surface was formed”.
